Results from patent publication US7083933B1, “Methods for identification of modulators of OSGPR116 activity” (Prosidion Limited, priority 2003, dated 2006).

Assays:
OSGPR116 [1] = biological target: T1, OSGPR116 (Homo sapiens, UniProt Q8TDV5); experiment: Cre-SEAP assay in HEK-293-Galpha16 cells transfected with OSGPR116 or empty vector; format: cell-based; design: expressed in transfected cells; host or cells: HEK-293-Galpha16 cells stably expressing cre-SEAP, transient transfection with lipofectamine; conditions: OSGPR116 and empty vector transfected cells, 7h, FIG. 12
T1 sequence (Q8TDV5 1-335): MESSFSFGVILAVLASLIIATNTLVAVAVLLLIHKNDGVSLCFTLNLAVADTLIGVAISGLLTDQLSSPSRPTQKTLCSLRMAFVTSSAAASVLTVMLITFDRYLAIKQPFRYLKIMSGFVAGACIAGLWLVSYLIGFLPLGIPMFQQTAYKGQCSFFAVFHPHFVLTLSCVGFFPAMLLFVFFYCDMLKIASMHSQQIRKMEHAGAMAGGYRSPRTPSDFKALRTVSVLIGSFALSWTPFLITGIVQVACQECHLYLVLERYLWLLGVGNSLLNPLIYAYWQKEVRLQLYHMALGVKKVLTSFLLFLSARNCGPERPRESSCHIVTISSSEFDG
Procedure: HEK-293—Galpha16 cells stably expressing the cre-SEAP (secreted alkaline phosphatase) reporter construct, and transiently transfected with either the OSGPR116 vector or empty vector control, were grown to between ˜0.5×10^6 and 1×10^7 cells/dish and seeded at 4×10^4 cells/well on poly-D-lysine coated clear-bottom 96-well tissue culture plates. The cells were left to adhere to the plates in media for 24h at 37° C. The media was aspirated and the cells arrested by serum starvation for a further 24h in 200 ul of colorless DMEM.
After serum arrest, the starvation media was aspirated and 90 ul fresh colorless DMEM containing 0.1% BSA was added. 10 ul of 10× compound (or DMSO/H20 control) was added and the plates incubated at 37° C. for 7h. Conditioned media (12.5 ul) was then transferred to a 96 well white flat-bottom plate. Next, 37.5 μl of 1× Tropix Dilution Buffer was added to the transferred culture media. 50 μl of Tropix Assay Buffer was also added. The plate was then incubated at room temperature for 5 minutes. Finally, 50 μl Tropix Reaction Buffer Diluent containing a 1:20 dilution of the CSPD Chemiluminescent Substrate was added. The plate was incubated at room temperature for 60 minutes and luminescence measured.

OSGPR116 [2] = biological target: T1, OSGPR116; experiment: Yeast cell-based Fus1p-LacZ reporter assay, human OSGPR116; design: expressed in transfected cells; host or cells: engineered yeast (GPA1 and Ste3 deleted, G-alpha chimera, Fus1p-LacZ reporters); conditions: human isoform, FIG. 9a; Galpha-q5 yeast, 4h incubation
Text: (§1) The yeast cell-based reporter assays have previously been described in the literature (e.g. see Miret J. J., et. al. (2002) J. Biol. Chem. 277:6881–6887; Campbell R. M., et. al. (1999) Bioorg Med. Chem. Lett. 9:2413–2418; King K., et. al. (1990) Science. 250:121–123); WO 99/14344; WO 00/12704; and U.S. Pat. No. 6,100,042). Briefly, yeast cells have been engineered such that the endogenous yeast G-alpha (GPA1) has been deleted and replaced with G-protein chimeras constructed using multiple techniques. Additionally the endogenous yeast alpha-cell GPCR, Ste3 has been deleted to allow for a […] expression of a mammalian GPCR of choice. In the yeast, elements of the pheromone signaling transduction pathway, which are conserved in eukaryotic cells (for example, the mitogen-activated protein kinase pathway), drive the expression of Fus1. By placing β-galactosidase (LacZ) under the control of the Fus1 promoter (Fus1p), a system has been developed whereby receptor activation leads to an enzymatic read-out. Different yeast strains (e.g. FIG. 10) denote the presence of different G-alpha chimeras (see “yeast reporter assays” in Results section below for definitions).
(§2) Yeast cells are transformed by an adaptation of the Lithium acetate method described by Agatep et.al. (Agatep, R., et. al. (1998) Transformation of Saccharomyces cerevisiae by the lithium acetate/single-stranded carrier DNA/polyethylene glycol (LiAc/ss-DNA/PEG) protocol. Technical Tips Online, Trends Journals, Elsevier). Briefly, yeast cells are grown overnight on yeast tryptone plates (YT). Carrier single-stranded DNA (10 μg), 2 μg of each of two Fus1p-LacZ reporter plasmids (one with URA selection marker and one with TRP), 2 μg of OSGPR116 in yeast expression vector (2μ origin of replication) and a lithium acetate/polyethylene glycol/TE buffer is pipetted into an Epindorf tube. The yeast expression plasmid containing the receptor/no receptor control has a LEU marker. Yeast cells are inoculated into this mixture and the reaction proceeds at 30° C. for 60 minutes. The yeast cells are then heat-shocked at 42° C. for 15 minutes. The cells are then washed and spread on selection plates. The selection plates are synthetic defined yeast media minus LEU, URA and TRP (SD-LUT). After incubating at 30° C. for 2–3 days, colonies that grow on the selection plates are then tested in the LacZ assay.
(§3) In order to perform fluorometric enzyme assays for β-galactosidase, yeast cells were grown overnight in liquid SD-LUT media to an unsaturated concentration (i.e. the cells are still dividing and have not yet reached stationary phase). They are diluted in fresh media to an optimal assay concentration and 90 μL of yeast cells were added to 96-well black polystyrene plates (Costar). Compounds, dissolved in ethanol and diluted in a 1% BSA solution to 10× concentration, were added to the plates and the yeast are placed at 30° C. for 4h. After 4h, the substrate for the β-galactosidase is added to each well. The substrate may yield a fluorescent or calorimetric read-out upon the activity of the β-galactosidase. In these experiments, Fluorescein di (β-D-galactopyranoside) was used (FDG), a substrate for the enzyme that releases fluorescein, allowing a fluorometric read-out. 20 μL of 500 uM FDG was used. After incubation of the cells with the substrate for 30–60 mins, 20 μL of 1M sodium carbonate is added to terminate the reaction and enhance the fluorescent signal. The plates were then read in a fluorometer at 485/535 nm. As an alternate read-out system, the yeast are also engineered with a Fus1p-HIS gene which means that activation of the receptor can also be measured through the growth of the yeast in a […] deficient media.

OSGPR116 [3] = biological target: T1, OSGPR116; design: expressed in transfected cells; host or cells: yeast strains 13397, 13393, 15070, 18043, 20202, 10151 with different G-alpha chimeras; conditions: as described in earlier U.S. patents; cited from earlier work
[4] = system: vector transformed yeast cells; experiment: Yeast reporter assay, vector transformed (no receptor) control yeast; format: cell-based; conditions: yeast without OSGPR116 expression, FIGS. 9a, 9b
Text: as §1, §2, §3

[5] = biological target: T2, mouse homolog of OSGPR116 (Mus musculus, UniProt Q7TQP3); experiment: Yeast cell-based Fus1p-LacZ reporter assay, mouse OSGPR116; conditions: mouse isoform, FIG. 9b; Galpha-q5 yeast, 4h incubation
T2 construct: expressed in transfected cells; host or cells: engineered yeast (GPA1 and Ste3 deleted, G-alpha chimera, Fus1p-LacZ reporters)
T2 sequence (Q7TQP3 1-335): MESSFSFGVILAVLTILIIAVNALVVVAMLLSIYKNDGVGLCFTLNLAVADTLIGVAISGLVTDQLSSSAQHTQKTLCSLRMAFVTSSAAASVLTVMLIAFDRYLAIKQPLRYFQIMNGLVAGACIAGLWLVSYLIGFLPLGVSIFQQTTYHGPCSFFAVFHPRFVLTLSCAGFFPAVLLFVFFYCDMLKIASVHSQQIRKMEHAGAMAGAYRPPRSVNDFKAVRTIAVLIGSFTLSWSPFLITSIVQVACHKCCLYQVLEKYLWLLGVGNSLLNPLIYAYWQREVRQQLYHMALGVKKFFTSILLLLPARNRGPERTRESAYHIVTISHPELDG
Text: as §1, §2, §3

Row | SMILES | effect on fluorescence (β-galactosidase activity) in yeast transformed with OSGPR116 receptor (OSGPR116 [2]) | increase in fluorescence in vector transformed cells [4] | effect on fluorescence (β-galactosidase activity) in yeast transformed with OSGPR116 receptor [5] | further results
1 | Nc1ncnc2c1ncn2[C@@H]1O[C@H](COP(=O)(O)OP(=O)(O)OP(=O)(O)O)[C@@H](O)[C@H]1O [ATP] |  |  |  | luminescence (cre-SEAP, cAMP response element driven secreted alkaline phosphatase) (OSGPR116 [1]): no effect
2 | CC1=C(/C=C/C(C)=C/C=C/C(C)=C/C(=O)O)C(C)(C)CCC1 [ATRA, all-trans-retinoic acid] | no effect |  |  | luminescence (cre-SEAP, cAMP response element driven secreted alkaline phosphatase) (OSGPR116 [1]): no effect; luminescence (cre-SEAP, cAMP response element driven secreted alkaline phosphatase) (OSGPR116 [1]; listed as all-trans retinoic acid (ATRA)): Lack of effect; production of cyclic AMP in host cells expressing recombinant receptor (OSGPR116 [3]): stimulate the production of cyclic AMP
3 | CCCCCCC(C)(C)c1ccc([C@@H]2C[C@H](O)CC[C@H]2CCCO)c(O)c1 [CP55940] | no effect |  |  | 
4 | CCCC(C)(C)c1ccc2c(c1)OC(C)(C)[C@@H]1CC=C(C)C[C@@H]21 [JWH-133] | no effect |  |  | 
5 | CCNC(=O)[C@H]1O[C@@H](n2cnc3c(N)ncnc32)[C@H](O)[C@@H]1O [NECA] |  |  |  | luminescence (cre-SEAP, cAMP response element driven secreted alkaline phosphatase) (OSGPR116 [1]): clear increase
6 | Cc1c(C(=O)c2cccc3ccccc23)c2cccc3c2n1[C@H](CN1CCOCC1)CO3 [WIN55212-2] | no effect |  |  | 
7 | CCCCC/C=C\C/C=C\C/C=C\C/C=C\CCCC(=O)NCCO [anandamide] | increase in fluorescence | not | increase in fluorescence | 
8 | CC/C=C\C/C=C\C/C=C\C/C=C\C/C=C\C/C=C\CCC(=O)NCCO [docosahexaenoic acid ethanolamide] | no effect |  |  | 
9 | CC/C=C\C/C=C\C/C=C\CCCCCCCC(=O)NCCO [linolenoyl ethanolamide] | increase in fluorescence | not | increase in fluorescence | 
10 | CCCCC/C=C\C/C=C\C/C=C\C/C=C\CCCC(=O)N[C@H](C)CO [methanandamide] | no effect |  |  | 
11 | CCCCCCCC/C=C\CCCCCCCC(N)=O [oleamide] | increase in fluorescence | not | increase in fluorescence | 
12 | CCCCCCCCCCCCCCCC(=O)NCCO [palmitoyl ethanolamide] | increase in fluorescence | not | increase in fluorescence | 
13 | CCCCCCCCCCCCCCCCCC(=O)NCCO [stearoyl ethanolamide] | increase in fluorescence | not | increase in fluorescence | 
